These results are taken from publication PMC3982195 (The FEBS journal, 2014).

As usually defined, the Kd is the equilibrium constant for the complex coming apart. Low values mean a tighter complex, high ones a looser complex. The term kcat/Km denotes the turnover number divided by the Michaelis constant.

For series [1], the target named is T1, cytosolic nucleotidase II (LpcN-II) (Legionella pneumophila, UniProt Q5ZZB6). Type of series: biochemical.
Series [2] has as its target T1, cytosolic nucleotidase II (LpcN-II). Briefly: biochemical. It counts as binding.
The target is the same in series [3]. Type of series: biochemical. This is another data set of the same source.
For series [4] the target is unchanged. Type of series: biochemical. The source holds these as a separate data set.
Series [5] deals with O=[N+]([O-])c1ccc(OP(=O)(O)O)cc1. Briefly: purified protein.

T1 sequence (Q5ZZB6 1-459 limits assumed): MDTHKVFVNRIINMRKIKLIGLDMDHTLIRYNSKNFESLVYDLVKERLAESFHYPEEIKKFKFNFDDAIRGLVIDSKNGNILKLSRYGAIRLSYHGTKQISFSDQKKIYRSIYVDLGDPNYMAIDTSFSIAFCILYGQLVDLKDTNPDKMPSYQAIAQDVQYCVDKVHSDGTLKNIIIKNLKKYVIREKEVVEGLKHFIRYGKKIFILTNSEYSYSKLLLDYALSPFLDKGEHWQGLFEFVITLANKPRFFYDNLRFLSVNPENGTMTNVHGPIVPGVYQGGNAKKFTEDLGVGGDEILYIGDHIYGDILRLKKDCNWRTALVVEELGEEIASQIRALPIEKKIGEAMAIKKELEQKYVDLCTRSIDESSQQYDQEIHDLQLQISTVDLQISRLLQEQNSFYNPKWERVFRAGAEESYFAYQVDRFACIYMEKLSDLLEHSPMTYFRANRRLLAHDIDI

In the case of `Nc1nc2c(ncn2[C@@H]2O[C@H](COP(=O)(O)OP(=O)(O)O)[C@@H](O)[C@H]2O)c(=O)[nH]1` [GDP], in series [1], the “activation of pNPP hydrolysis; competition with GTP” value was “GDP was also found to compete for binding to the GTP binding site”.
Consider `Nc1nc2c(ncn2[C@@H]2O[C@H](COP(=O)(O)OP(=O)(O)OP(=O)(O)O)[C@@H](O)[C@H]2O)c(=O)[nH]1` [GTP], for which the Kd in series [2] was found to be 4.1 ± 0.7 mM.
Take `O=c1[nH]cnc2c1ncn2[C@@H]1O[C@H](COP(=O)(O)OP(=O)(O)OP(=O)(O)O)[C@@H](O)[C@H]1O` [ITP]: the “competitive reduction of GTP activation of pNPP hydrolysis” value in series [3] is “indicate that IMP and ITP bind to the GTP-binding site”.
As for `Nc1nc2c(ncn2[C@H]2C[C@H](O)[C@@H](COP(=O)(O)OP(=O)(O)OP(=O)(O)O)O2)c(=O)[nH]1` [dGTP], in series [4], the “activation of pNPP hydrolysis by purified enzyme” value was “GTP, dGTP, and GDP showed activation of LpcN-II activity”.
For “cytosolic nucleotidase II (LpcN-II) (Legionella pneumophila subsp. pneumophila str. Philadelphia 1)”, in series [5], the K0.5 was determined as 5.1 ± 0.9 mM and the kcat/Km was found to be 0.1 M⁻¹ s⁻¹.
